ChEMBL document CHEMBL4622942, “Design, synthesis and biological evaluation of potent EGFR kinase inhibitors against 19D/T790M/C797S mutation” (Bioorg Med Chem Lett, 2020)
Blank lines part the entries; values can stand above or below the compound they belong to. Active and inactive are the calls of the source. The rule behind the calls is not given here.

What was measured:
[1] = target: Epidermal growth factor receptor (Homo sapiens, UniProt P00533, L858R/T790M); assay: Inhibition of EGFR L858R/T790M mutant (unknown origin) by ELISA
Sequence of Epidermal growth factor receptor (Homo sapiens, UniProt P00533, L858R/T790M) (P00533 25-1210 T790M/L858R limits assumed): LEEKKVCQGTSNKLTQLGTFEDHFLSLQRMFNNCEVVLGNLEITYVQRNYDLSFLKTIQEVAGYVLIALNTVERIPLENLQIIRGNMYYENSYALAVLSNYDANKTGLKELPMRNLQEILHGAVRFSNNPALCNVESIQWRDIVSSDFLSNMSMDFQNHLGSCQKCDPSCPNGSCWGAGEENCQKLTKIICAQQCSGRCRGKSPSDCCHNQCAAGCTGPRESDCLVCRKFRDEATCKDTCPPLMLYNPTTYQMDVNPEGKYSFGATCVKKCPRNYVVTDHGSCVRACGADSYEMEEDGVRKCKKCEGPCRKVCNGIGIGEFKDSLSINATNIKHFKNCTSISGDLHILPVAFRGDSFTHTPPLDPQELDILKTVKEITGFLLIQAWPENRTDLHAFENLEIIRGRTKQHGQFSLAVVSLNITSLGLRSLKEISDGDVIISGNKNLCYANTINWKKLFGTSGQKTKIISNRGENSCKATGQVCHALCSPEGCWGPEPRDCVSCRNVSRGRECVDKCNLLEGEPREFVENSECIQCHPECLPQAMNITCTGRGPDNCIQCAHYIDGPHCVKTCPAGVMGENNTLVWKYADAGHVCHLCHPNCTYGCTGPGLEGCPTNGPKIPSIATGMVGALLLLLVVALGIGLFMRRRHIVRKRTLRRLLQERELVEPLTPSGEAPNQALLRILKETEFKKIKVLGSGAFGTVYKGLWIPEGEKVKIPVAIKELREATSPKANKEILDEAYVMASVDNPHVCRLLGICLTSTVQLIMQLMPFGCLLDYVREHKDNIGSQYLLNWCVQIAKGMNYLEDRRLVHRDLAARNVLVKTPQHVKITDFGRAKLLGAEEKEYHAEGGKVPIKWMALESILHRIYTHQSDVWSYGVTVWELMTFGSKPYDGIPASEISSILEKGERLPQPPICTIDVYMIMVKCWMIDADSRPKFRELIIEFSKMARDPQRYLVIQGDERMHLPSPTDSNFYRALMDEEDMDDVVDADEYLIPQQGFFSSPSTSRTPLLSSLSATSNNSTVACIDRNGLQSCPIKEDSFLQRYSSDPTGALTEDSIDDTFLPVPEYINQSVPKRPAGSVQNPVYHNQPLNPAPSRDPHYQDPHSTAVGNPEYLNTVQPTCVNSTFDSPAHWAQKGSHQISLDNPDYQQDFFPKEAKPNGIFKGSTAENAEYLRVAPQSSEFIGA

[2] = target: Epidermal growth factor receptor (Homo sapiens, UniProt P00533); assay: Inhibition of wild type EGFR (unknown origin) by ELISA
Sequence of Epidermal growth factor receptor (Homo sapiens, UniProt P00533) (P00533 whole entry): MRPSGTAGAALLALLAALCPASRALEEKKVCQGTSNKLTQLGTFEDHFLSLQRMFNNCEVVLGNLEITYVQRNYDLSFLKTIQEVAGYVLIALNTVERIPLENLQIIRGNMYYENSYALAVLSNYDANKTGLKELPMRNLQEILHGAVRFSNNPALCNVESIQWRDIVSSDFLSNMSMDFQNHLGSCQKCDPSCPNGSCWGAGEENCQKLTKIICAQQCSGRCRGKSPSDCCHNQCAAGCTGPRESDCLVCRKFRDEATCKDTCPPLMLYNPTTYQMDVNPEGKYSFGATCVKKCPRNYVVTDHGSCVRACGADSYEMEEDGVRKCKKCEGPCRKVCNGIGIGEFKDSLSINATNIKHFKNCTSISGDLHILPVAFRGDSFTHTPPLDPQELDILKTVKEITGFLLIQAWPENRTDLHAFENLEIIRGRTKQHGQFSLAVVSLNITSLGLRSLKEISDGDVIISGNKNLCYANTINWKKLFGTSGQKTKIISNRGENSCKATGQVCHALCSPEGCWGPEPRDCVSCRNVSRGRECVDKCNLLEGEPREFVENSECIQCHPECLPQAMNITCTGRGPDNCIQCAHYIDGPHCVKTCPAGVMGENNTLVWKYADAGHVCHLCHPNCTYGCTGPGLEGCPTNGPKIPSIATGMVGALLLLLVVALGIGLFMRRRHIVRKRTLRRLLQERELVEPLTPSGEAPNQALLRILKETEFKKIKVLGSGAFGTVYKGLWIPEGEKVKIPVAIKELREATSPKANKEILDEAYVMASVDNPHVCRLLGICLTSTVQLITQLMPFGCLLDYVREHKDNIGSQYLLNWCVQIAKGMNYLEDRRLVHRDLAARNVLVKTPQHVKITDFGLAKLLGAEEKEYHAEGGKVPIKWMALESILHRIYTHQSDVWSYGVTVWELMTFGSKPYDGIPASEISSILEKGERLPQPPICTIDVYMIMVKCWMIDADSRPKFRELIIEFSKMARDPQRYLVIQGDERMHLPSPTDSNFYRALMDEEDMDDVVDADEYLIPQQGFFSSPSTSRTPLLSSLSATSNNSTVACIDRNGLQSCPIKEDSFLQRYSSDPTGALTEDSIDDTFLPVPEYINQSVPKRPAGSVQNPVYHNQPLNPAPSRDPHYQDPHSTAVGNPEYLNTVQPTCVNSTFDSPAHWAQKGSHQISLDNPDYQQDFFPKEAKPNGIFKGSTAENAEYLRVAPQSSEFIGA

[3] = target: Epidermal growth factor receptor (Homo sapiens, UniProt P00533, C797S/L858R/T790M); assay: Inhibition of EGFR L858R/T790M/C797S mutant (unknown origin) by ELISA
[4] = target: Epidermal growth factor receptor (Homo sapiens, UniProt P00533, C797S/EX19DEL/T790M); assay: Inhibition of EGFR 19D/T790M/C797S mutant (unknown origin) by ELISA
Sequence of Epidermal growth factor receptor (Homo sapiens, UniProt P00533, C797S/EX19DEL/T790M) (P00533 whole entry, looked up, stated change not applied): as the sequence (P00533 whole entry) above

BaF3 [5] = assay: Cell cycle arrest in mouse BAF3 cells harboring EGFR 19D/T790M/C797S mutant assessed as accumulation at S phase at 1 uM measured after 24 hrs by flow cytometry analysis (reference value: 52.43 %); assay type: functional
BaF3 [6] = assay: Cell cycle arrest in mouse BAF3 cells harboring EGFR 19D/T790M/C797S mutant assessed as accumulation at G1 phase at 1 uM measured after 24 hrs by flow cytometry analysis (reference value: 39.62 %); assay type: functional
BaF3 [7] = assay: Cell cycle arrest in mouse BAF3 cells harboring EGFR 19D/T790M/C797S mutant assessed as accumulation at G2 phase at 1 uM measured after 24 hrs by flow cytometry analysis (reference value: 7.94 %); assay type: functional
NCI-H1975 = assay: Antiproliferative activity against human NCI-H1975 cells harboring EGFR L858R/T790M mutant assessed as reduction in cell viability by CCK8 assay; assay type: functional, cell-based
A-431 = assay: Antiproliferative activity against human A431 cells overexpressing EGFR assessed as reduction in cell viability by CCK8 assay; assay type: functional, cell-based
BaF3 [8] = assay: Antiproliferative activity against mouse BAF3 cells harboring EGFR 19D/T790M/C797S mutant assessed as reduction in cell viability by CCK8 assay; assay type: functional, cell-based
BaF3 [9] = assay: Induction of apoptosis in mouse BAF3 cells harboring EGFR 19D/T790M/C797S mutant assessed as necrotic cells at 50 uM measured after 24 hrs by annexinV-FITC/propidium iodide staining based flow cytometry analysis (reference value: 0.13 %); assay type: functional
BaF3 [10] = assay: Induction of apoptosis in mouse BAF3 cells harboring EGFR 19D/T790M/C797S mutant assessed as late apoptotic cells at 10 uM measured after 24 hrs by annexinV-FITC/propidium iodide staining based flow cytometry analysis (reference value: 2.03 %); assay type: functional
BaF3 [11] = assay: Cell cycle arrest in mouse BAF3 cells harboring EGFR 19D/T790M/C797S mutant assessed as accumulation at G2 phase at 20 uM measured after 24 hrs by flow cytometry analysis (reference value: 7.94 %); assay type: functional
BaF3 [12] = assay: Induction of apoptosis in mouse BAF3 cells harboring EGFR 19D/T790M/C797S mutant assessed as late apoptotic cells at 1 uM measured after 24 hrs by annexinV-FITC/propidium iodide staining based flow cytometry analysis (reference value: 2.03 %); assay type: functional
BaF3 [13] = assay: Cell cycle arrest in mouse BAF3 cells harboring EGFR 19D/T790M/C797S mutant assessed as accumulation at S phase at 20 uM measured after 24 hrs by flow cytometry analysis (reference value: 52.43 %); assay type: functional
BaF3 [14] = assay: Cell cycle arrest in mouse BAF3 cells harboring EGFR 19D/T790M/C797S mutant assessed as accumulation at S phase at 10 uM measured after 24 hrs by flow cytometry analysis (reference value: 52.43 %); assay type: functional
BaF3 [15] = assay: Induction of apoptosis in mouse BAF3 cells harboring EGFR 19D/T790M/C797S mutant assessed as live cells at 10 uM measured after 24 hrs by annexinV-FITC/propidium iodide staining based flow cytometry analysis (reference value: 82.74 %); assay type: functional
[16] = system: Epidermal growth factor receptor (Homo sapiens), P00533 [UNDEFINED MUTATION]; assay: Inhibition of EGFR 19D/T790M/C797S mutant (unknown origin) expressed in mouse BAF3 cells assessed as reduction in EGF-stimulated ERK phosphorylation pretreated for 3 hrs followed by EGF stimulation by Western blot analysis; assay type: cell-based
Sequence of Epidermal growth factor receptor (Homo sapiens), P00533 [UNDEFINED MUTATION] (P00533 whole entry, looked up, stated change not applied): as the sequence (P00533 whole entry) above

BaF3 [17] = assay: Cell cycle arrest in mouse BAF3 cells harboring EGFR 19D/T790M/C797S mutant assessed as accumulation at G1 phase at 10 uM measured after 24 hrs by flow cytometry analysis (reference value: 39.62 %); assay type: functional
[18] = system: Epidermal growth factor receptor (Homo sapiens), P00533 [UNDEFINED MUTATION]; assay: Inhibition of EGFR 19D/T790M/C797S mutant (unknown origin) expressed in mouse BAF3 cells assessed as reduction in EGF-stimulated Akt phosphorylation at 5 to 100 uM pretreated for 3 hrs followed by EGF stimulation by Western blot analysis; assay type: cell-based
BaF3 [19] = assay: Induction of apoptosis in mouse BAF3 cells harboring EGFR 19D/T790M/C797S mutant assessed as live cells at 50 uM measured after 24 hrs by annexinV-FITC/propidium iodide staining based flow cytometry analysis (reference value: 82.74 %); assay type: functional
BaF3 [20] = assay: Induction of apoptosis in mouse BAF3 cells harboring EGFR 19D/T790M/C797S mutant assessed as late apoptotic cells at 50 uM measured after 24 hrs by annexinV-FITC/propidium iodide staining based flow cytometry analysis (reference value: 2.03 %); assay type: functional
[21] = Selectivity index, ratio of IC50 for human A431 cells overexpressing EGFR assessed as reduction in cell viability by CCK8 assay to IC50 for human NCI-H1975 cells harboring EGFR […]/T790M assessed as reduction in cell viability by CCK8 assay; assay type: functional
BaF3 [22] = assay: Induction of apoptosis in mouse BAF3 cells harboring EGFR 19D/T790M/C797S mutant assessed as live cells at 1 uM measured after 24 hrs by annexinV-FITC/propidium iodide staining based flow cytometry analysis (reference value: 82.74 %); assay type: functional
BaF3 [23] = assay: Induction of apoptosis in mouse BAF3 cells harboring EGFR 19D/T790M/C797S mutant assessed as necrotic cells at 1 uM measured after 24 hrs by annexinV-FITC/propidium iodide staining based flow cytometry analysis (reference value: 0.13 %); assay type: functional
BaF3 [24] = assay: Cell cycle arrest in mouse BAF3 cells harboring EGFR 19D/T790M/C797S mutant assessed as accumulation at G1 phase at 20 uM measured after 24 hrs by flow cytometry analysis (reference value: 39.62 %); assay type: functional
BaF3 [25] = assay: Induction of apoptosis in mouse BAF3 cells harboring EGFR 19D/T790M/C797S mutant assessed as early apoptotic cells at 10 uM measured after 24 hrs by annexinV-FITC/propidium iodide staining based flow cytometry analysis (reference value: 15.09 %); assay type: functional
BaF3 [26] = assay: Induction of apoptosis in mouse BAF3 cells harboring EGFR 19D/T790M/C797S mutant assessed as early apoptotic cells at 50 uM measured after 24 hrs by annexinV-FITC/propidium iodide staining based flow cytometry analysis (reference value: 15.09 %); assay type: functional
[27] = system: Epidermal growth factor receptor (Homo sapiens), P00533 [UNDEFINED MUTATION]; assay: Inhibition of EGFR 19D/T790M/C797S mutant (unknown origin) expressed in mouse BAF3 cells assessed as reduction in EGF-stimulated EGFR phosphorylation pretreated for 3 hrs followed by EGF stimulation by Western blot analysis; assay type: cell-based
BaF3 [28] = assay: Cell cycle arrest in mouse BAF3 cells harboring EGFR 19D/T790M/C797S mutant assessed as accumulation at G2 phase at 10 uM measured after 24 hrs by flow cytometry analysis (reference value: 7.94 %); assay type: functional
BaF3 [29] = assay: Cell cycle arrest in mouse BAF3 cells harboring EGFR 19D/T790M/C797S mutant assessed as accumulation at G1 phase measured after 24 hrs by flow cytometry analysis; assay type: functional, cell-based
BaF3 [30] = assay: Induction of apoptosis in mouse BAF3 cells harboring EGFR 19D/T790M/C797S mutant assessed as necrotic cells at 10 uM measured after 24 hrs by annexinV-FITC/propidium iodide staining based flow cytometry analysis (reference value: 0.13 %); assay type: functional
[31] = Selectivity index, ratio of IC50 for human A431 cells overexpressing EGFR assessed as reduction in cell viability by CCK8 assay to IC50 for mouse BAF3 cells harboring EGFR 19D/T790M/C797S assessed as reduction in cell viability by CCK8 assay; assay type: functional
BaF3 [32] = assay: Induction of apoptosis in mouse BAF3 cells harboring EGFR 19D/T790M/C797S mutant measured after 24 hrs by annexinV-FITC/propidium iodide staining based flow cytometry analysis; assay type: functional, cell-based
BaF3 [33] = assay: Induction of apoptosis in mouse BAF3 cells harboring EGFR 19D/T790M/C797S mutant assessed as early apoptotic cells at 1 uM measured after 24 hrs by annexinV-FITC/propidium iodide staining based flow cytometry analysis (reference value: 15.09 %); assay type: functional

SMILES: CCC(=O)Nc1cc(Nc2nccc(-c3cn(CCCO)c4ccccc34)n2)c(OC)cc1N(C)CCN(C)C
IC50 [1]: 169 nM
IC50 [2]: > 1000 nM
IC50 [3]: 638 nM
IC50 [4]: 73 nM

SMILES: COc1cc(N(C)CCN(C)C)ccc1Nc1nccc(-c2cn(CCCO)c3ccccc23)n1
Activity (BaF3 [9]): 0.42%
Activity (BaF3 [10]): 14.53%
IC50 [1]: 157 nM
Activity (BaF3 [11]): 10.02%
Activity (BaF3 [5]): 40.51%
IC50 [2]: > 1000 nM
Activity (BaF3 [12]): 2.74%
Activity (BaF3 [13]): 26.61%
Activity (BaF3 [14]): 37.81%
Activity (BaF3 [15]): 60.89%
inhibition [16]: Dose-dependent effect
Activity (BaF3 [17]): 51.94%
inhibition [18]: Active
Activity (BaF3 [19]): 1.76%
Activity (BaF3 [20]): 23.81%
Activity (BaF3 [6]): 48%
Ratio IC50 [21]: 1.27
Activity (BaF3 [22]): 80.07%
IC50 [3]: 218 nM
Activity (BaF3 [23]): 0.19%
IC50 [4]: 15.3 nM
Activity (BaF3 [24]): 53.37%
Activity (BaF3 [25]): 24.18%
Activity (BaF3 [7]): 10.52%
Activity (BaF3 [26]): 74.01%
IC50 (NCI-H1975): 16200 nM
inhibition [27]: Dose-dependent effect
IC50 (A-431): 20500 nM
Activity (BaF3 [28]): 10.25%
Activity (BaF3 [29]): Dose-dependent effect
IC50 (BaF3 [8]): 8510 nM
Activity (BaF3 [30]): 0.4%
Ratio IC50 [31]: 2.41
Activity (BaF3 [32]): Dose-dependent effect
Activity (BaF3 [33]): 17%

Further compounds by falling IC50 [1], results first:

IC50 [1]: 208 nM
IC50 [2]: > 1000 nM
IC50 [3]: > 1000 nM
IC50 [4]: 663 nM
SMILES: CCC(=O)Nc1cc(Nc2nccc(-c3c[nH]c4c(CCO)cccc34)n2)c(OC)cc1F

IC50 [1]: 170 nM
IC50 [2]: > 1000 nM
IC50 [3]: > 1000 nM
IC50 [4]: 80.5 nM
SMILES: CCC(=O)Nc1cc(Nc2nccc(-c3cn(CCO)c4ccccc34)n2)c(OC)cc1F

IC50 [1]: 142 nM
IC50 [2]: > 1000 nM
IC50 [3]: 332 nM
IC50 [4]: 40.4 nM
SMILES: CCC(=O)Nc1cc(Nc2nccc(-c3cn(CCCO)c4ccc(F)cc34)n2)c(OC)cc1F

IC50 [1]: 127 nM
IC50 [2]: > 1000 nM
IC50 [3]: 422 nM
IC50 [4]: 72.5 nM
SMILES: CCC(=O)Nc1cc(Nc2nccc(-c3cn(CCCO)c4ccccc34)n2)c(OC)cc1F

IC50 [1]: 2.2 nM
IC50 [2]: 283 nM
IC50 [3]: > 1000 nM
IC50 [4]: 17.9 nM
SMILES: C=CC(=O)Nc1cc(Nc2nccc(-c3cn(CCCO)c4ccccc34)n2)c(OC)cc1F
